Results reported in US10905774B2, “Nanocage and use thereof” (KOREA INSTITUTE OF SCIENCE AND TECHNOLOGY, priority 2016, dated 2021).
“Also recorded” adds a separate entry of the source.

Legend:
[1] = system: CT26.CL25 cancer cells; assay: In vivo cancer growth inhibition, tail vein injection of doxorubicin nanocage complex and comparators; design: species or system Balb/c wild-type mice; conditions: tail vein 1 mg/kg; for tumor tissues excised after 25 days of cancer cell injection: day 25
Method: (§1) The antitumor activities of the ferritin heavy chain nanocage prepared in Examples 1-1 to 1-5 and the doxorubicin nanocage complex prepared in Example 3 were examined. Particularly, Balb/c wild type mice were used as the experimental animals, and experiments on the above experimental animals were carried out according to the regulations of the KIST animal ethics committee.
In addition, the present inventors investigated the in vivo anticancer activity of the doxorubicin-encapsulated nanocage complex prepared in Example 3 above. Particularly, 1×10^6 cells of CT26.CL25 cancer cells were subcutaneously injected into the above Balb/c wild-type mice to induce cancer. On the 7th day after the injection of cancer cells, 1 mg/kg of each test substance (buffer only, doxorubicin-loaded FH-SIRPα HV nanocage, doxorubicin-loaded ferritin heavy chain nanocage, doxorubicin+recombinant SIRPα, doxorubicin only, FH-SIRPα HV nanocage, ferritin heavy chain nanocage or recombinant SIRPα) was injected first by the tail vein and further injected four times at interval of 3 days at the same dose. The animals were sacrificed for 25 days after the injection of cancer cells, and the tumor tissues were excised and an ex vivo image was taken (FIG. 7D). Further, the volume of the tumor tissue over time before the sacrifice of the experimental animals was recorded from 7 days after the injection of cancer cells at the interval of 3 days by calculating using the following formula after measuring length (L) and width (W) of tumor tissues using a caliper: Tumor tissue volume (V [mm^3])=(L [mm])×(W [mm])^2×0.5

[2] = system: secondary cancer transplanted to other site; assay: Anticancer memory effect: secondary tumor rechallenge and survival; type: in vivo, mice; conditions: after 80 days of tumor rechallenge
From the text: The present inventors have hypothesized that the effect of FH-SIRPα nanocage according to an embodiment of the present invention is due to the recruiting of immune cells from the results of Experimental Example 3. Thus, the present inventors analyze growth of secondary cancer transplanted to other site and counted survival rate of the experimental animals after excising primary tumor tissues from the experimental animals.

[3] = system: CT26.CL25 mouse colon cancer cells; assay: Phagocytosis rate of CT26.CL25 cells by bone marrow-derived macrophages (counting phagocytized cells); type: cell-based; conditions: BMDMs cocultured with CT26.CL25 at 37° C. for 4 hours
Method: After the staining, phagocytosis rate of macrophages against cancer cells were determined by counting phagocytized cancer cells by the macrophages.

[4] = system: CT26.CL25 cancer cells; assay: In vivo cancer growth inhibition, intratumoral nanocages; design: species or system Balb/c wild-type mice; conditions: CT26.CL25 subcutaneous; intratumoral 28 mg/kg
Method: as §1
First, in order to measure the in vivo anticancer activity of the various ferritin heavy chain nanocages prepared in Examples 1-1 to 1-5, 1×10^6 cells of CT26.CL25 cancer cells expressing β-galactosidase were subcutaneously injected on the left side of Balb/c wild-type mice in order to induce cancer and then each experimental substance (buffer only, FH-mSIRPα WT, FH-SIRPα HV, FH-SIRPγ WT and FH-SIRPγ V2) was injected intratumorally at dose of 28 mg/kg) after 5 day of tumor inoculation, and the length (L) and the width (W) of the tumor tissues were measured using a caliper at intervals of 3 days (FIG. 7A), and then the volume of tumor tissue was calculated using the following formula: Tumor tissue volume (V [mm^3])=(L [mm])×(W [mm])^2×0.5

[5] = system: HT29 human colon cancer cells; assay: Flow cytometry of nanocage binding to HT29 cancer cells; type: cell-based; conditions: 20, 200, 400 or 600 nM
Method: In order to confirm the affinity of cancer cells for nanocages produced using various SIRP proteins prepared in Examples 1-2 to 1-5, respectively in addition to the nanocage prepared in Example 1-1, flow cytometry was performed. Particularly, HT29 human colon cancer cells were seeded into 2×10^5 cells/ml and the wild-type ferritin heavy chain nanocage as a control group, the FH-SIRPα HV nanocage prepared in Example 1-1, the FH-hSIRPα WT nanocage prepared in Example 1, the FH-SIRPγ WT nanocage prepared in Example 1-3 and the FH-SIRPγ V2 nanocage prepared in Example 1-5 were treated at the concentration of 20, 200, 400 or 600 nM, respectively, and the degree of cell binding was measured. Particularly, after treating anti-ferritin heavy chain primary antibody (Abcam, Cambridge, UK, 1:200) and an Alexafluor 488-conjugated donkey anti-rabbit secondary antibody (Jackson ImmunoResearch, Suffolk, UK, 1:400), the cells were sorted according to fluorescence intensity through flow cytometry analysis.

[6] = system: Raji, HT-29, 4T1, CT26 and CT26.CL25 cancer cells co-cultured with BMDCs; assay: Phagocytosis of cancer cells by bone marrow-derived dendritic cells (FACS); type: cell-based, human, mouse; conditions: 400 nM; compared with control group
From the text: (§2) Particularly, the present inventors observed the phagocytic action of macrophages and dendritic cells against tumor cells through FACS analysis. First, 3×10^5 cells/ml of bone marrow-derived macrophages (BMDMs) pre-stained with CellTracker Green (Thermo Fisher Scientific, USA) and (a) 1.25×10^6 cells/ml of human Raji Burkitt lymphoma cells, (b) human HT-29 colorectal cancer cells, (c) mouse 4T1 breast cancer cells, (d) mouse CT26 colorectal cancer cells and (e) mouse CT26.CL25 colorectal cancer cells overexpressing β-galactosidase pre-stained with pHrodo Red SE, respectively were seeded in RPMI medium and buffer only (control), the ferritin-SIRPα fusion nanocage (FH-SIRPα HV) of the present invention, the wild-type ferritin heavy chain nanocage (wtFH) and the monomeric SIRPα (mSIRPα) were treated at the concentration of 400 nM, respectively. […] The phagocytosis rate was determined by the following formula. […]

[7] = molecular target: T1, Mouse CD47 (Mus musculus, UniProt Q61735); assay: Surface plasmon resonance (SPR) analysis of affinities and kinetics of binding to mouse CD47
T1 sequence (Q61735 19-303): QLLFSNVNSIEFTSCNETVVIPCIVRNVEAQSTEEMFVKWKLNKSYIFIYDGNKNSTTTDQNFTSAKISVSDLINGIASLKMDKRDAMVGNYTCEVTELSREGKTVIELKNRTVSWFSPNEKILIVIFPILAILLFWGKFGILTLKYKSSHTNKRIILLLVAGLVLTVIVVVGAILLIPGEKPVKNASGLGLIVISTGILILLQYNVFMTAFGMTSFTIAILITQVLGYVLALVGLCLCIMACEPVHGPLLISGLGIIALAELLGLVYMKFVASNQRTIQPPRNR
Method: (§3) The present inventors performed fluorescence microscopy to confirm whether the FH-SIRPα HV nanocage prepared in Example 1 specifically binds to CD47 on the surface of cancer cells. Specifically, CT26 mouse colorectal cancer cell line and HT29 human colorectal cancer cell line were inoculated at a concentration of 3×10^4 cells/ml. Then, after treating 400 nM of FH-SIRPα HV nanocage prepared in Example 1-1 or same amount of wild-type ferritin heavy chain nanocage as control group, anti-ferritin primary antibody (Abcam, Cambridge, UK) and FITC-conjugated anti-mouse rabbit secondary antibody (Jackson ImmunoResearch, Suffolk, UK) were treated and then fluorescence microscopic images were obtained. […] The affinities and kinetics of FH-SIRP α HV nanocage binding human or mouse CD47 were analyzed by surface plasmon resonance (SPR) analysis and the results are shown in Table 1 below.

[8] = molecular target: Human CD47 (Homo sapiens, UniProt Q08722); assay: Surface plasmon resonance (SPR) analysis of affinities and kinetics of binding to human CD47
Method: as §3

[9] = system: Raji, HT-29, 4T1, CT26 and CT26.CL25 cancer cells co-cultured with BMDMs; assay: Phagocytosis of cancer cells by bone marrow-derived macrophages (FACS); type: cell-based, human, mouse; conditions: 400 nM; compared with control group
From the text: as §2

[10] = five injections at interval of 3 days

Human CD47, sequence (Q08722 19-323): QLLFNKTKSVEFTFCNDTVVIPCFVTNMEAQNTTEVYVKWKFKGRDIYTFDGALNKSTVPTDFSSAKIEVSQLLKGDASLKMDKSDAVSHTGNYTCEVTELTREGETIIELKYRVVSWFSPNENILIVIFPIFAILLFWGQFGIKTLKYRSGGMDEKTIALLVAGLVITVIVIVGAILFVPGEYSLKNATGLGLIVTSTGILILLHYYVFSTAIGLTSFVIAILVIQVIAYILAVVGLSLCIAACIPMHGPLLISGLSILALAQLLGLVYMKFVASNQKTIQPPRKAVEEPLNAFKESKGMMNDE

Molecule	tumor tissues excised after 25 days of cancer cell injection [1]	anticancer effect (growth of cancer cells) [1, 10]	survival rate [2] [%]	phagocytic activity against cancer cells [3]	antitumor activity (tumor growth) [4]	degree of cell binding [5]	volume of the tumor [1, 10]	phagocytosis of cancer cells by dendritic cells (BMDCs) [6]	Kd [7] [nM]	ka [7] [M⁻¹ s⁻¹]	kd [7] [s⁻¹]	Kd [8] [nM]	ka [8] [M⁻¹ s⁻¹]	kd [8] [s⁻¹]	phagocytosis of cancer cells by macrophages (BMDMs) [9]
COc1cccc2c1C(=O)c1c(O)c3c(c(O)c1C2=O)C[C@@](O)(C(=O)CO)C[C@@H]3O[C@H]1C[C@H](N)[C@H](O)[C@H](C)O1 [doxorubicin]	limited	insignificant; also recorded: not so significant	50	–	–	–	–	–	–	–	–	–	–	–	–
FH-hSIRPα WT nanocage: Ferritin heavy chain nanocage of fusion protein with human SIRPα wild-type protein (SEQ ID NO: 92)	–	–	–	exhibited phagocytic activity against cancer cells	somewhat lowered	binds to cancer cells in a concentration-dependent manner	–	–	–	–	–	–	–	–	–
mSIRPα: Monomeric (recombinant) SIRPα protein used as comparator	same tumor volume as the control group	not so significant	50	–	–	–	exceeded 1,000 mm^3	significantly increased	6.2	1.8e+06	0.011	0.0054	7e+06	3.7e-05	significantly increased
wtFH: Wild-type ferritin heavy chain nanocage used as control [reference compound]	–	–	–	–	–	did not bind to cancer cells even when the concentration increased	–	very low	–	–	–	–	–	–	very low
